Measurements published in patent publication US10676429B2, “Sulfamoyl-arylamides and the use thereof as medicaments for the treatment of hepatitis B” (priority 2012, dated 2020).

Assays:
HepG2 cells = assay: Cytotoxicity in HepG2 cells, 4 days, Resazurin assay; conditions: read-out: HepG2 4 days CC50; HepG2 cells, 4 days, Resazurin
HBV [1] = assay: Anti-HBV activity in stable transfected HepG2.2.15 cell line (HBV DNA from secreted virions, realtime PCR); format: cell-based; conditions: HepG2.2.15 cells, 6 days of treatment, secreted virion HBV DNA, read-out: HepG2 2.15 EC50
HBV [2] = assay: Anti-HBV activity in HepG2.117 cell line (Tet-off, intracellular HBV DNA, realtime PCR); format: cell-based; conditions: HepG2.117 cells, 3 days of treatment, intracellular HBV DNA, read-out: HepG2 117 EC50
[3] = Cytotoxicity in HepG2 cells, 4 days, Resazurin assay; conditions: human, HepG2 cells
[4] = Hepatitis B virus, HepG2.2.15, 144 h
[5] = Hepatitis B virus, HepG2.117, 72 h

Compound | CC50 (HepG2 cells) [µM] | EC50 (HBV [1]; [4]) [µM] | EC50 (HBV [2]; [5]) [µM] | EC50 (HBV [1]) [µM] | EC50 (HBV [2]) [µM] | CC50 at 4 days [3] [µM]
CN1CCC(NS(=O)(=O)c2cccc(C(=O)Nc3ccc(F)cc3)c2)CC1 [Compound 45] | > 100 | 59.3 | 16 | – | – | –
O=C(Nc1ccc(F)cc1)c1cccc(S(=O)(=O)NC2CCC2)c1 [Compound 5] | 57.7 | 0.83 | 0.9 | – | – | –
CC(=O)N1CCC(NS(=O)(=O)c2cccc(C(=O)Nc3ccc(F)cc3)c2)CC1 [Compound 39] | > 100 | 6.77 | 4.68 | – | – | –
O=C(Nc1ccc(F)cc1)c1cccc(S(=O)(=O)NC2CCOCC2)c1 [Compound 1] | > 100 | 0.93 | 1.67 | – | – | –
CC(C)NS(=O)(=O)c1cccc(C(=O)Nc2ccc(F)cc2)c1 [Compound 47] | 57.5 | 0.74 | 0.96 | – | – | –
Cc1cc(NC(=O)c2cccc(S(=O)(=O)NC3CCC(O)C3)c2)ccc1F (single isomer, unassigned) [Compound 145d, N-(4-fluoro-3-methyl-phenyl)-3-[[(1S,3S)-3-hydroxycyclopentyl]-sulfamoyl]benzamide or N-(4-fluoro-3-methyl-phenyl)-3-[[(1R,3R)-3-hydroxycyclopentyl]sulfamoyl]benzamide] | > 25 | – | – | 0.4 | 0.64 | –
Cc1c(NC(=O)c2cccc(S(=O)(=O)N[C@H]3CCOC3)c2)ccc(F)c1F [Compound 118] | > 25 | 3.63 | 1.91 | – | – | –
O=C(Nc1ccc(F)cc1)c1cccc(S(=O)(=O)N2CCOCC2)c1 [Compound 41] | > 100 | 8.49 | 11 | – | – | –
CN(C)S(=O)(=O)c1cccc(C(=O)Nc2ccc(F)cc2)c1 [Compound 37] | > 100 | 5.02 | 2.99 | – | – | –
Cc1cc(NC(=O)c2cccc(S(=O)(=O)NC3CC(=O)N(C)C3)c2)ccc1F (racemic) [Compound 179a] | > 25 | – | – | 0.38 | 0.25 | –
O=C(Nc1ccc(F)cc1)c1cccc(S(=O)(=O)N[C@@H]2CCOC2)c1 [Compound 8] | > 100 | 1.18 | 2.03 | – | – | –
O=C(Nc1cccc(F)c1)c1cccc(S(=O)(=O)NC2CCCC2)c1 [Compound 77] | > 25 | 0.27 | 0.43 | – | – | –
Cc1c(F)ccc(NC(=O)c2cccc(S(=O)(=O)NC3(C)COC3)c2)c1C [Compound 115] | > 25 | 2.74 | 1.65 | – | – | –
Cc1cc(NC(=O)c2cccc(S(=O)(=O)NC3CC(=O)N(C)C3)c2)ccc1F (racemic) [Compound 179b] | > 25 | – | – | 1.11 | 1.84 | –
Cc1cc(NC(=O)c2cccc(S(=O)(=O)NC3(C)COC3)c2)c(C)cc1F [Compound 119] | > 25 | 3.06 | 1.91 | – | – | –
Cc1cc(NC(=O)c2cccc(S(=O)(=O)NC3Cc4ccccc4C3O)c2)ccc1F (single isomer, unassigned) [Compound 141d, N-(4-fluoro-3-methyl-phenyl)-3-[[(1R,2S)-1-hydroxyindan-2-yl]sulfamoyl]benzamide or N-(4-fluoro-3-methyl-phenyl)-3-[[(1S,2R)-1-hydroxyindan-2-yl]sulfamoyl]benzamide] | > 25 | – | – | 0.56 | 1.14 | –
O=C(Nc1ccc(F)cc1)c1cccc(S(=O)(=O)NC2COC2)c1 [Compound 3] | > 100 | 2.1 | 3.05 | – | – | –
CCC(CC)NS(=O)(=O)c1cccc(C(=O)Nc2ccc(F)cc2)c1 [Compound 10] | 40.3 | 0.75 | 3.63 | – | – | –
Cc1cc(NC(=O)c2cccc(S(=O)(=O)NC3Cc4ccccc4C3O)c2)ccc1F (single isomer, unassigned) [Compound 141c, N-(4-fluoro-3-methyl-phenyl)-3-[[(1S,2S)-1-hydroxyindan-2-yl]-sulfamoyl]benzamide or N-(4-fluoro-3-methyl-phenyl)-3-[[(1R,2R)-1-hydroxyindan-2-yl]sulfamoyl]benzamide] | > 25 | – | – | 0.17 | 0.29 | –
O=C(Nc1ccc(F)cc1)c1cccc(S(=O)(=O)NC2CCCCC2)c1 [Compound 6] | > 25 | – | 0.58 | – | – | –
CC(=O)N1CCN(S(=O)(=O)c2cccc(C(=O)Nc3ccc(F)cc3)c2)CC1 [Compound 40] | > 100 | 7.1 | 6.29 | – | – | –
Cc1c(F)ccc(NC(=O)c2cccc(S(=O)(=O)N[C@H]3CCOC3)c2)c1F [Compound 104] | > 25 | 0.29 | 0.78 | – | – | –
O=C(Nc1ccc(F)cc1)c1cccc(S(=O)(=O)N2CCCCC2)c1 [Compound 35] | 70.4 | 4.5 | 2.7 | – | – | –
O=C(Nc1ccc(F)cc1)c1cccc(S(=O)(=O)NC2CCCC2)c1 [Compound 2] | 32.7 | 0.47 | 0.56 | – | – | –
Cc1cc(NC(=O)c2cccc(S(=O)(=O)N[C@H]3CCOC3)c2)c(F)cc1F [Compound 106] | > 25 | 2.22 | 3.3 | – | – | –

Compound | CC50 (HepG2 cells) [µM] | EC50 (HBV [1]; [4]) [µM] | EC50 (HBV [2]; [5]) [µM] | EC50 (HBV [1]) [µM] | EC50 (HBV [2]) [µM] | CC50 at 4 days [3] [µM]
CN(C(=O)C1CCCCC1)S(=O)(=O)c1cccc(C(=O)Nc2ccc(F)cc2)c1 [Compound 48] | – | 2.92 | 1.88 | – | – | 97.2
O=C(Nc1ccc(F)c(F)c1)c1cccc(S(=O)(=O)N[C@H]2CCOC2)c1 [Compound 90] | – | 0.38 | 0.51 | – | – | > 25
Cc1cc(NC(=O)c2cccc(S(=O)(=O)NC3CC(O)C3)c2)ccc1F (centres unmarked) [Compound 184] | – | 0.15 | 0.4 | – | – | > 25
O=C(Nc1ccc(F)cc1)c1cc(S(=O)(=O)NC2CCCC2)c(Cl)cc1Cl [Compound 78] | – | 0.9 | 0.65 | – | – | > 25
Cc1cc(NC(=O)c2cc(S(=O)(=O)N[C@H]3CCOC3)ccc2C(F)(F)F)ccc1F [Compound 242] | – | 1.91 | 1.8 | – | – | > 25
Cc1cc(NC(=O)c2cccc(S(=O)(=O)NC3CCS(=O)(=O)C3)c2)ccc1F (centres unmarked) [Compound 140] | – | 1.1 | 1.12 | – | – | > 25
Cc1cc(NC(=O)c2cccc(S(=O)(=O)N[C@H]3CCC[C@@H]3O)c2)ccc1F [Compound 138] | – | 1.28 | 2.27 | – | – | > 25
CC[C@@H](C)NS(=O)(=O)c1cccc(C(=O)Nc2ccc(F)cc2)c1 [Compound 70] | – | 0.34 | 0.89 | – | – | > 25
CCC1(NS(=O)(=O)c2cccc(C(=O)Nc3ccc(F)c(C)c3)c2)CC1 [Compound 85] | – | 0.05 | 0.38 | – | – | > 25
Cc1cc(NC(=O)c2cccc(S(=O)(=O)N[C@H]3CCOC3)c2C)ccc1F [Compound 126] | – | 1.38 | 0.89 | – | – | > 25
Cc1cc(NC(=O)c2cccc(S(=O)(=O)N[C@H](C)C(F)(F)F)c2)ccc1F [Compound 225] | – | 0.09 | 1.34 | – | – | > 25
CCc1cc(NC(=O)c2cccc(S(=O)(=O)NC(C)C)c2)ccc1F [Compound 92] | – | 0.31 | 2.59 | – | – | > 25
CC1(NS(=O)(=O)c2cccc(C(=O)Nc3ccc(F)cc3)c2)CCCC1 [Compound 76] | – | 0.72 | 2.5 | – | – | > 25
COC(=O)N1CC(C)(NS(=O)(=O)c2cccc(C(=O)Nc3ccc(F)c(C)c3)c2)C1 [Compound 157] | – | 0.13 | 0.23 | – | – | > 25
Cc1cc(NC(=O)c2cccc(S(=O)(=O)N[C@H]3CCC[C@H]3O)c2)ccc1F [Compound 139] | – | 1 | 1.75 | – | – | > 25
Cc1cc(NC(=O)c2cccc(S(=O)(=O)N[C@H](C)c3ccccc3)c2)ccc1F [Compound 166] | – | 0.19 | 2.39 | – | – | 14.6
O=C(Nc1ccccc1)c1cc(S(=O)(=O)NC2CCCCC2)cs1 [Compound 60] | – | 0.85 | 0.67 | – | – | 29.1
Cc1cc(NC(=O)c2ccc(S(=O)(=O)NC3(C)COC3)o2)ccc1F [Compound 231] | – | 0.21 | 0.32 | – | – | > 25
O=C(Nc1ccc(F)cc1)c1cc(S(=O)(=O)NC2CCCC2)ccc1F [Compound 53] | – | 0.36 | 0.44 | – | – | > 50
Cc1cc(NC(=O)c2cccc(S(=O)(=O)N[C@@H]3CCC[C@@H]3O)c2)ccc1F [Compound 172] | – | 0.26 | 0.61 | – | – | > 25
Cc1cc(NC(=O)c2cccc(S(=O)(=O)NC3Cc4ccccc4C3O)c2)ccc1F (single isomer, unassigned) [Compound 141a, N-(4-fluoro-3-methyl-phenyl)-3-[[(1S,2S)-1-hydroxyindan-2-yl]-sulfamoyl]benzamide or N-(4-fluoro-3-methyl-phenyl)-3-[[(1R,2R)-1-hydroxyindan-2-yl]sulfamoyl]benzamide] | – | – | – | 0.7 | 1.65 | > 25
Cc1cc(NC(=O)c2cccc(S(=O)(=O)NC(C)CCc3ccccc3)c2)ccc1F (centres unmarked) [Compound 153] | – | 0.22 | 0.25 | – | – | > 25
N#Cc1cccc(NC(=O)c2cccc(S(=O)(=O)NC3CCCC3)c2)c1 [Compound 75] | – | 0.39 | 0.82 | – | – | > 25
O=C(Nc1ccc(F)cc1)c1ccc(S(=O)(=O)N2CCCCC2)o1 [Compound 57] | – | 15.5 | 12.7 | – | – | 52.1
